SMILES	melting point [°C]
C=CCn1c(C)cc(C(=O)CCl)c1C	36 to 40
c1ccc(COc2cccc3cn[nH]c23)cc1	126 to 128
O=C(O)c1cc(O)cc(OCC(F)(F)F)c1	165 to 167
NNc1ccc(S(=O)(=O)N2CCC(Cc3ccccc3)CC2)cn1	185 to 187
O=C(O)Cc1ccc(NC(=O)c2cscn2)cc1	184 to 186
Cc1c[nH]c(=O)n1-c1ccc(Cl)cc1	185 to 187
Cc1n[nH]c(-c2ccccc2I)n1	154 to 156
Cc1nn(-c2ccccc2)c(CCl)c1C#N	130 to 132
O=Cc1ccc(-c2ccccc2)s1	90 to 92
O=C(O)CNS(=O)(=O)c1ccc2ccccc2c1	180 to 182
Cc1ccc(I)cc1C(=O)O	166 to 168
COc1ccc(S(N)(=O)=O)cc1NC(C)=O	217 to 219
Cc1cc(C)c2cc(C(=O)O)sc2n1	198 to 200
COC(=O)c1ccc([N+](=O)[O-])cc1N	156 to 158
N#Cc1cccc(C2(N)CC2)c1	67 to 69
Nc1ccc(-c2nc3cc(F)ccc3[nH]2)cc1	194 to 196
CN1CCN(c2ccnc(C#N)c2)CC1	114 to 116
Fc1ccc(-c2nnc(Cl)c3ccccc23)cc1	186 to 188
CCOc1ccccc1Oc1ccccc1C(=O)O	96 to 98
O=C(CCl)NCC1(c2ccccc2)CCCCC1	54 to 56
CCCNC(=O)NC(=O)CCl	119 to 121
COc1ccc(N2C(=O)C=CC2=O)c(OC)c1	125 to 127
CN(C)c1cncc(Cl)n1	44 to 46
COc1ccc(S(=O)(=O)Cl)cc1C1(C)NC(=O)NC1=O (centres undefined)	214 to 216
CC(C)(C)OC(=O)NCc1cccc(C(N)=S)c1	105 to 107

SMILES	melting point [°C]
CN(c1ccc(O)cc1)S(=O)(=O)c1ccccc1	131 to 133
Oc1nc(O)c2c(n1)CCC2	324 to 326
O=C1NC(=O)N(c2ccc3c(c2)OCO3)C1=O	195 to 197
Nc1ccc(S(=O)(=O)NC2CN3CCC2CC3)cc1 (centres undefined)	168 to 170
Nc1ccc(-n2ccnc2)nc1	114 to 116
CC1(c2ccsc2)NC(=O)NC1=O (centres undefined)	151 to 153
CC(C)(C)OC(=O)NC(C)(C)C(N)=S	169 to 171
COc1ccc2c(C)cc(NN)nc2c1	250 to 252
Cc1ccccc1C(=O)NC1CCNCC1	129 to 131
CC(C)(C)C=CC(=O)O	60 to 62
CC(C)c1nc(C(=O)O)nn1-c1cccc(F)c1	93 to 95
CCc1nc2ccccc2c(C(=O)O)c1C	190 to 192
Cc1nnc(NC(=O)CCl)s1	230 to 232
O=C(O)c1ccc2c(=O)[nH]c(S)nc2c1	379 to 381
Cc1ccc(Cl)nc1CC(=O)O	120 to 122
CCOC(=O)c1cc(C)sc1NC(=O)CCl	104 to 106
CC(=O)CN1C(=O)COCC1=O	77 to 79
Nc1onc(-c2ccco2)c1-c1ccc2c(c1)OCO2	138 to 140
CC(C)c1cccc(-c2ccc(C(=O)O)o2)c1	84 to 86
Cc1[nH]c2ccccc2c1C(=O)CBr	203 to 205
Cc1cc(Cl)c(N)c(C(=O)O)c1	201 to 203
O=C(O)CCc1cccc(F)c1F	106 to 108
O=C(O)c1csc(-c2ccc(Cl)cc2Cl)n1	204 to 206
O=C1COc2ccc(C(F)(F)F)cc2N1	165 to 167
O=C1C=CC(=O)N1CCc1ccccc1F	106 to 108

SMILES	melting point [°C]
CNc1ccc([N+](=O)[O-])c2nonc12	257 to 259
Nc1nn2cc(-c3ccccc3)nc2s1	183 to 185
O=C1OC(=O)c2cc(Cl)ccc21	96 to 98
O=C(O)C1(C(=O)NC2CC2)CCC1	139 to 141
O=S(=O)(c1ccc2oc(S)nc2c1)N1CCOCC1	251 to 253
NC(=O)Nc1ccc(N)cc1	155 to 157
N#Cc1cc(F)c(C(=O)O)c(F)c1	189 to 191
CC(C)(C)c1ccc(C(=O)NC(=O)CCl)cc1	120 to 122
O=C1Nc2ccc(Br)cc2C1=NO	268 to 270
O=C(O)C=Cc1ccc2ccc(Cl)cc2n1	226 to 228
CN(C)Cc1nc(Cl)c2c(-c3ccccc3)csc2n1	114 to 116
NCCc1nc2ccccc2[nH]1	215 to 230
Nc1cc(C(=O)Nc2ccccc2)ccc1Cl	199 to 201
CC(=O)NCc1ccc(C(=O)O)o1	171 to 173
NC(=O)c1cc(-c2ccccc2)on1	202 to 204
O=C(O)CCNC(=O)c1cccs1	220 to 222
COC(=O)c1cccc(-c2nc(C)cs2)c1	52 to 54
Cc1cc(S(C)(=O)=O)cc(C(=O)O)c1C	199 to 201
CC(Br)C(=O)c1ccc(Oc2ccccc2)cc1 (centres undefined)	86 to 88
O=C(O)c1ccc(S(=O)(=O)Cl)c(Cl)c1	199 to 201
O=C(NC1CC1)n1ccnc1	89 to 91
Cc1cc(C)c(S(=O)(=O)Cl)cc1C(=O)O	189 to 191
Cc1cccn2c(=O)cc(Cl)nc12	124 to 126
C=CCn1c(N)c(C(N)=S)sc1=S	195 to 197

Second part, the molecule after the results:

melting point [°C]	SMILES
210 to 215	N#Cc1ccc(C(=O)O)nc1
311 to 313	O=c1[nH]c(=O)c2cc(S(=O)(=O)Cl)cnc2[nH]1
143 to 145	Cc1nc(COc2ccccc2/C=C/C(=O)O)cs1
89 to 91	COc1nc(Cl)nc(Cl)n1
99 to 101	O=C(CCCl)N1CCN(c2ccc(F)cc2)CC1
45 to 47	COc1cc(C=O)ccc1SC
64 to 66	OCc1ccc(OCC(F)(F)F)cc1
161 to 163	COc1ccc(N)cc1-n1nnnc1C1CC1
86 to 88	COc1ccccc1C=NO
126 to 128	Oc1ccc(Oc2nccs2)cc1
92 to 96	CC(C)N1C(=O)NC(=O)C1=O
179 to 181	COc1ccccc1N(C)S(=O)(=O)c1ccc(Cl)c(C(=O)O)c1
174 to 176	COc1cc(C(=O)O)ccc1OCc1ccccc1
215 to 217	Cc1cc(C)c(C)c(Oc2c(C(=O)O)c(C)nn2C)c1
144 to 146	O=C(O)C1CCN(C(=O)N2CCCC2)CC1
74 to 76	O=[N+]([O-])c1cc(Cl)ccc1S(=O)(=O)Cl
232 to 234	O=C(O)c1cc(N2CCOC2=O)ccc1F
186 to 188	O=Cc1c(-c2ccc(Br)s2)nc2ccccn12
279 to 281	Cc1c(C(=O)O)oc2c(Br)cc(Cl)cc12
209 to 211	CCc1c(C(=O)O)cnn1-c1ccc(Br)cc1
104 to 106	CCS(=O)(=O)c1ccc(Cl)cc1C(=O)O
90 to 92	O=Cc1cn(-c2ccccc2)nc1-c1cccs1
117 to 119	Clc1nc(Cl)c2ccccc2n1
259 to 261	CC1CC(C)CC2(C1)NC(=O)N(CC(=O)O)C2=O (centres undefined)

melting point [°C]	SMILES
95 to 97	CC1COc2ccccc2C1O (centres undefined)
125 to 128	Cc1ccc(-c2nc(S)n[nH]2)cc1
90 to 92	CCCOc1ccc(CCC(=O)O)cc1
166 to 168	N#Cc1c(N)sc2c1-c1ccccc1CC2
130 to 132	Cc1cccc2c3c([nH]c12)C(N)CCC3 (centres undefined)
< 17	CC(C)CN1C(=O)CN=C1S
166 to 175	COC(=O)CCc1c(C)nn(-c2ccc(C(=O)O)cc2)c1C
39 to 41	COC(=O)CCc1ccc(N)cc1
124 to 126	O=C(NO)c1cccs1
239 to 241	O=C(O)c1cccc(Nc2cnccn2)c1
100 to 102	CCCOc1ccccc1C(N)=S
188 to 190	O=C(O)C(F)(F)c1c[nH]c(=O)[nH]c1=O
176 to 178	O=C1Nc2c(cc(F)cc2[N+](=O)[O-])C1=O
154 to 156	O=C(O)CCS(=O)(=O)c1ccc2c(c1)OCCO2
77 to 79	CC1CC(C)(C)NC1=O (centres undefined)
131 to 133	CN(C)Cc1nc(S)c2ccccc2n1
179 to 181	COc1n[nH]c(N)c1C#N
225 to 227	O=C1CCC2(C(=O)O)Sc3ccccc3N12 (centres undefined)
182 to 184	O=C(Nc1nnc(C2CCCCC2)s1)OCC(F)(F)F
104 to 106	COC(=O)C(C)(O)c1ccncc1 (centres undefined)
113 to 115	CC(C)Cc1ccc(C(=O)CCC(=O)O)cc1
87 to 89	O=C(O)CCSc1ccc2c(c1)OCCO2
68 to 70	O=C(O)CC1(CO)CC1
122 to 124	O=C(O)C1CC1c1ccc(Br)cc1 (centres undefined)

melting point [°C]	SMILES
114 to 116	CCOC(=O)c1cnc(C(=O)O)c(Cl)c1
36 to 38	O=C(NCCCN1CCCC1)OCC(F)(F)F
95 to 97	COC(=O)c1ccc(OCC#N)cc1
135 to 137	NNC(=O)c1ccc(Cl)cc1F
116 to 118	NC(=O)C(F)(F)c1ccccc1
36 to 38	FC(F)(F)c1ccc(C2CCCCN2)cc1 (centres undefined)
69 to 71	Cc1nonc1C(=O)O
73 to 75	COc1cc(-c2noc(CCl)n2)ccc1C
106 to 108	Cc1ccccc1-n1cc(C(=O)O)cn1
134 to 136	Nc1c(Cl)cc(S(=O)(=O)Cl)cc1Cl
151 to 153	Cc1ncc(C(=O)O)c(C)n1
179 to 181	N#Cc1ccc2nccnc2c1
69 to 71	CCOC(=O)c1ccc(NCC2CC2)cc1
87 to 89	CN(C)S(=O)(=O)c1ccccc1CNC(=O)CCl
120 to 122	Cc1nn(C)c(C)c1NC(=O)C(C)Cl (centres undefined)
103 to 105	COCCOc1cn(-c2ccccc2)nc1C(=O)O
86 to 88	OC1CCc2c(OCc3ccccc3)cccc21 (centres undefined)
74 to 76	COC(=O)c1ccccc1CCC(=O)O
81 to 83	Cc1cc(Cl)c(CO)c(Cl)n1
194 to 196	COC(=O)c1ccc(Oc2ccc([N+](=O)[O-])cc2)nn1
124 to 126	Nc1ccc(CN2CCCC2=O)cc1
111 to 113	O=C(NC1CC1)c1ccc(Br)cc1F

— a melting point compilation (Tetko et al.)
